Experimental data: US10829500B2, “Pyridyl-triazabicycles” (Hoffmann-La Roche Inc., priority 2014, dated 2020)
pIC50: −log10 of the molar value.

What follows are compounds tested against BACE1 (Homo sapiens (Human), UniProt P56817) (assay: Cellular Aβ-lowering assay (Abeta 40 AlphaLISA) in HEK293 APP cells). Conditions: Aβ 40 in culture supernatant after 18-20 hrs incubation.
Assay type: cell-based
Experimental: Cellular Aβ-Lowering Assay:
The Abeta 40 AlphaLISA Assay can be used. The HEK293 APP cells were seeded in 96 well Microtiter plates in cell culture medium (Iscove's, plus 10% (v/v) fetal bovine serum, penicillin/streptomycin) to about 80% confluency and the compounds were added at a 3× concentration in ⅓ volume of culture medium (final DMSO concentration was kept at 1% v/v). After 18-20 hrs incubation at 37° C. and 5% CO2 in a humidified incubator, the culture supernatants were harvested for the determination of Aβ 40 concentrations using Perkin-Elmer Human Amyloid beta 1-40 (high specificity) Kit (Cat # AL275C).
In a Perkin-Elmer White Optiplate-384 (Cat #6007290), 2 ul culture supernatants were combined with 2 μl of a 10× AlphaLISA Anti-hAβAcceptor beads+Biotinylated Antibody Anti-Aβ 1-40 Mix (50 μg/mL/5 nM). After 1 hour room temperature incubation, 16 μl of a 1.25× preparation of Streptavidin (SA) Donor beads (25 μg/mL) were added and incubated for 30 minutes in the Dark. Light Emission at 615 nm was then recorded using EnVision-Alpha Reader. Levels of A β 40 in the culture supernatants were calculated as percentage of maximum signal (cells treated with 1% DMSO without inhibitor). The IC50 values were calculated using the Excel XLfit software.

Sequence of BACE1 (P56817 46-501): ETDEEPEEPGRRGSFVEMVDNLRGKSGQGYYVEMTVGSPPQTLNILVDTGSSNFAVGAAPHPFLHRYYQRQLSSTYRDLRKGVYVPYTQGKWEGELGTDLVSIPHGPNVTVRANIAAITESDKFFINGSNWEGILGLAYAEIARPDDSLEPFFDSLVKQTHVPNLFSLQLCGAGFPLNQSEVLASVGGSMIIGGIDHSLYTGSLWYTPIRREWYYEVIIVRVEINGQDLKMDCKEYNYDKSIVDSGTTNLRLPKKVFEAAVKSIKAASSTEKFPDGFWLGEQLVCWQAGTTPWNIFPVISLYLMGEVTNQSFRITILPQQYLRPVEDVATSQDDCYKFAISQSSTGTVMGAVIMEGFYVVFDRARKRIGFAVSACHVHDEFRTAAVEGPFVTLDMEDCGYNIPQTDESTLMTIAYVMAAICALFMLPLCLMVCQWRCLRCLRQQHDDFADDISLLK

Row | Structure (SMILES) | pIC50
1 | C[C@@]1(c2nc(NC(=O)c3ccc(C#N)cn3)ccc2F)CS2(=O)=NCCCCN2C(N)=N1 (stereo in doubt) [Example 1, 5-Cyano-pyridine-2-carboxylic acid [6-((3R,4aR)-1-amino-3-methyl-4a-oxo-3,4,6,7,8,9-hexahydro-4aλ^6-thia-2,5,9a-triaza-benzocyclohepten-3-yl)-5-fluoro-pyridin-2-yl]-amide] | 7.07
2 | Cc1cc(C#N)cnc1C(=O)Nc1ccc(F)c([C@]2(C)C[S@@]3(=O)=NCCCCN3C(N)=N2)n1 [Example 3] | 7.44
3 | C[C@@]1(c2nc(NC(=O)c3ccc(C#N)cn3)ccc2F)CS2(=O)=NCCCCN2C(N)=N1 (stereo in doubt) [Example 2, 5-Cyano-pyridine-2-carboxylic acid [6-((3R,4aS)-1-amino-3-methyl-4a-oxo-3,4,6,7,8,9-hexahydro-4aλ^6-thia-2,5,9a-triaza-benzocyclohepten-3-yl)-5-fluoro-pyridin-2-yl]-amide] | 7.31

Results, then the compound that gave them:

Row | pIC50 | Structure (SMILES)
4 | 7.02 | N#Cc1ccc(C(=O)Nc2ccc(F)c([C@]3(CF)C[S@]4(=O)=NCCCCN4C(N)=N3)n2)nc1 [Example 4, N-[6-[(1S,10S)-8-Amino-10-(fluoromethyl)-1-oxo-1λ^6-thia-2,7,9-triazabicyclo[5.4.0]undeca-1,8-dien-10-yl]-5-fluoropyridin-2-yl]-5-cyanopyridine-2-carboxamide]
5 | 7.55 | N#Cc1ccc(C(=O)Nc2ccc(F)c([C@]3(CF)C[S@@]4(=O)=NCCCCN4C(N)=N3)n2)nc1 [Example 5, N-[6[(1R,10S)-8-Amino-10-(fluoromethyl)-1-oxo-1λ^6-thia-2,7,9-triazabicyclo[5.4.0]undeca-1,8-dien-10-yl]-5-fluoropyridin-2-yl]-5-cyanopyridine-2-carboxamide]
